Patent publication US20260317324A1, “BIFUNCTIONAL COMPOUNDS FOR DEGRADING BRAF VIA UBIQUITIN PROTEOSOME PATHWAY” (Nurix Therapeutics, Inc., priority 2023, published 2026)

Tests used:
Type in all cases: cell-based
[1] = molecular target: T1, BRAF V600E (Homo sapiens, UniProt P15056, V600E); test: BRAF HiBiT degradation assay, C-terminal HiBiT-tagged BRAF V600E A375 cells (clone 1F10), Nano-Glo HiBiT Lytic assay; conditions: for Dmax: A-375
T1 construct: endogenous C-terminal HiBiT fusion tag on BRAF V600E allele; endogenous in cells; host or cells: A375 clone 1F10 (CRISPR-Cas9 knock-in of the HiBiT tag; parental A375 from ATCC)
Summary of the method: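 Degradation is measured as loss of HiBiT signal from BRAF V600E tagged at its native locus in A375 cells. Doses span 1 μM to 0.01 nM in half-log steps, in duplicate. Percent remaining is calculated against DMSO controls after subtracting untagged A375 background, and curve fitting yields DC50 and observed Dmax.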

[2] = molecular target: T2, BRAF G466V (Homo sapiens, UniProt P15056, G466V); test: BRAF HiBiT degradation assay, C-terminal HiBiT-tagged BRAF G466V overexpressed in HCT-116 BRAF−/− cells (clone 8), Nano-Glo HiBiT Lytic assay
T2 construct: Horizon Discovery (HCT-116 BRAF−/− cells); host or cells: HCT-116 BRAF−/− cells, clone 8, lentiviral transduction
Summary of the method: (§1)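 First, the stable HiBiT-tagged cells were plated and incubated for 24 h. Next, compound was added in duplicate as an 11-point series with a 1 μM top concentration. Lytic detection followed, with DMSO-treated parental cells used for background. Finally, DC50 and Obs. Dmax relative to DMSO were derived from the % protein remaining curves.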

[3] = molecular target: T3, BRAF G469A (Homo sapiens, UniProt P15056, G469A); test: BRAF HiBiT degradation assay, C-terminal HiBiT-tagged BRAF G469A overexpressed in HCT-116 BRAF−/− cells (clone 34), Nano-Glo HiBiT Lytic assay
T3 construct: Horizon Discovery (HCT-116 BRAF−/− cells); host or cells: HCT-116 BRAF−/− cells, clone 34, lentiviral transduction
Summary of the method: as §1

[4] = molecular target: T4, BRAF D594G (Homo sapiens, UniProt P15056, D594G); test: BRAF HiBiT degradation assay, C-terminal HiBiT-tagged BRAF D594G overexpressed in HCT-116 BRAF−/− cells (clone 63), Nano-Glo HiBiT Lytic assay
T4 construct: Horizon Discovery (HCT-116 BRAF−/− cells); host or cells: HCT-116 BRAF−/− cells, clone 63, lentiviral transduction
Summary of the method: as §1

[5] = A375 (BRAF V600E, Class 1), DC50 at 50% degradation
[6] = A375 (BRAF V600E, Class 1), observed Dmax, % protein degraded relative to DMSO control
[7] = BRAF G466V (Class 3), HCT-116 BRAF−/− cells, DC50 at 50% degradation
[8] = BRAF G466V (Class 3), HCT-116 BRAF−/− cells, observed Dmax relative to DMSO control
[9] = BRAF G469A (Class 2), HCT-116 BRAF−/− cells, DC50 at 50% degradation
[10] = BRAF G469A (Class 2), HCT-116 BRAF−/− cells, observed Dmax relative to DMSO control
[11] = BRAF D594G (Class 3), HCT-116 BRAF−/− cells, DC50 at 50% degradation
[12] = BRAF D594G (Class 3), HCT-116 BRAF−/− cells, observed Dmax relative to DMSO control
[13] = A375 (BRAF V600E), DC50 at 50%: fitted conc. at Y=50
[14] = A375 (BRAF V600E), percentage protein degraded at maximal compound effect relative to DMSO
[15] = BRAF G466V, DC50 at 50%: fitted conc. at Y=50
[16] = HCT-116, BRAF G466V, percentage protein degraded at maximal compound effect relative to DMSO
[17] = Class 2, BRAF G469A, DC50 at 50%: fitted conc. at Y=50
[18] = HCT-116, Class 2, BRAF G469A, percentage protein degraded at maximal compound effect relative to DMSO
[19] = BRAF D594G, DC50 at 50%: fitted conc. at Y=50
[20] = HCT-116, BRAF D594G, percentage protein degraded at maximal compound effect relative to DMSO

T2 sequence (P15056 whole entry G466V): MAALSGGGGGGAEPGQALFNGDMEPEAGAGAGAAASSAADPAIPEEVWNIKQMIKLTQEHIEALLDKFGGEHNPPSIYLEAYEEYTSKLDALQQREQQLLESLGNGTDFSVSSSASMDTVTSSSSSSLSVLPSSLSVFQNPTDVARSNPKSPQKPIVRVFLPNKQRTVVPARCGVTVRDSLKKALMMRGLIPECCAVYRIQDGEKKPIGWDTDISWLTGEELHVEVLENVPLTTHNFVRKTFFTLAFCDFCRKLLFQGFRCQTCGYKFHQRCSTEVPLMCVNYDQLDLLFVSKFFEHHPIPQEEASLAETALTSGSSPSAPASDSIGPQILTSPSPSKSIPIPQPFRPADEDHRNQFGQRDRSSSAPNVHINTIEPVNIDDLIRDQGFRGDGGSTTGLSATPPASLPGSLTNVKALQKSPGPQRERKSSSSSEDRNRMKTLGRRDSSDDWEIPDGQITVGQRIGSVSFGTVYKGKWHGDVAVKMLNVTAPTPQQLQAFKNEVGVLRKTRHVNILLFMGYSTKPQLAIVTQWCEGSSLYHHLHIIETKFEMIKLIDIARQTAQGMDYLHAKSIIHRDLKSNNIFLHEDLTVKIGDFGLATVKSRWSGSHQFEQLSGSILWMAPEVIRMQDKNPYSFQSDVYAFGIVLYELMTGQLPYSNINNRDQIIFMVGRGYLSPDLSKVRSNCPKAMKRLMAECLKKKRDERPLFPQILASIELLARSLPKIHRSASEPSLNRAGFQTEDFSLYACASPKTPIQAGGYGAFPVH
T1 sequence (P15056 whole entry V600E, the tested form may be a part): as the sequence (P15056 whole entry G466V) above, with V466G, V600E counted along it
T4 sequence (P15056 whole entry D594G): as the sequence (P15056 whole entry G466V) above, with V466G, D594G counted along it
T3 sequence (P15056 whole entry G469A): as the sequence (P15056 whole entry G466V) above, with V466G, G469A counted along it

DC50 [1, 5] [µM] | Dmax [1, 6] [%] | DC50 [2, 7] [µM] | Dmax [2, 8] [%] | DC50 [3, 9] [µM] | Dmax [3, 10] [%] | DC50 [4, 11] [µM] | Dmax [4, 12] [%] | DC50 [1, 13] [µM] | Dmax [1, 14] [%] | DC50 [2, 15] [µM] | Dmax [2, 16] [%] | DC50 [3, 17] [µM] | Dmax [3, 18] [%] | DC50 [4, 19] [µM] | Dmax [4, 20] [%] | Compound
< 0.01 | > 70 | 0.01 to 0.05 | > 70 | 0.01 to 0.05 | 30 to 70 | < 0.01 | > 70 | – | – | – | – | – | – | – | – | CCN(C)S(=O)(=O)Nc1cc(Cl)cc(-c2cn(-c3ccc(N4CCN(CC5CCN(c6ccc([C@H]7CCC(=O)NC7=O)cc6)CC5)CC4)cn3)nc2-c2ccncc2)c1F [Compound 310, (3R)-3-(4-{4-[(4-{6-[4-(5-chloro-3-{[ethyl(methyl)sulfamoyl]amino}-2-fluorophenyl)-3-(pyridin-4-yl)-1H-pyrazol-1-yl]pyridin-3-yl}piperazin-1-yl)methyl]piperidin-1-yl}phenyl)piperidine-2,6-dione]
< 0.01 | > 70 | < 0.01 | > 70 | < 0.01 | > 70 | < 0.01 | > 70 | – | – | – | – | – | – | – | – | O=C1CC[C@H](c2ccc(N3CCC(CN4CCN(c5ccc(-n6cc(-c7cc(Cl)cc(NS(=O)(=O)N8CCCC8)c7F)c(-c7ccncc7)n6)cc5)CC4)CC3)cc2F)C(=O)N1 [Compound 344, N-{5-chloro-3-[1-(4-{4-[(1-{4-[(3R)-2,6-dioxopiperidin-3-yl]-3-fluorophenyl}piperidin-4-yl)methyl]piperazin-1-yl}phenyl)-3-(pyridin-4-yl)-1H-pyrazol-4-yl]-2-fluorophenyl}pyrrolidine-1-sulfonamide]
0.01 to 0.05 | > 70 | 0.05 to 0.5 | 30 to 70 | > 0.5 | 30 to 70 | 0.01 to 0.05 | 30 to 70 | – | – | – | – | – | – | – | – | CCN(C)S(=O)(=O)Nc1cc(Cl)cc(-c2cn(-c3ccc(N4CCN(CC5CCN(c6ccc(N7CCC(=O)NC7=O)cc6)CC5)CC4)cn3)nc2-c2ccncc2)c1F [Compound 311, 1-(4-{4-[(4-{6-[4-(5-chloro-3-{[ethyl(methyl)sulfamoyl]amino}-2-fluorophenyl)-3-(pyridin-4-yl)-1H-pyrazol-1-yl]pyridin-3-yl}piperazin-1-yl)methyl]piperidin-1-yl}phenyl)-1,3-diazinane-2,4-dione]
< 0.01 | > 70 | < 0.01 | > 70 | 0.01 to 0.05 | > 70 | < 0.01 | > 70 | – | – | – | – | – | – | – | – | CCN(C)S(=O)(=O)Nc1cc(Cl)cc(-c2cn(-c3ccc(N4CCN(CC5CCN(c6ccc(C7CCC(=O)NC7=O)cn6)CC5)CC4)cc3)nc2-c2ccncc2)c1F (racemic) [Compound 308, Rac-(3R)-3-(6-{4-[(4-{4-[4-(5-chloro-3-{[ethyl(methyl)sulfamoyl]amino}-2-fluorophenyl)-3-(pyridin-4-yl)-1H-pyrazol-1-yl]phenyl}piperazin-1-yl)methyl]piperidin-1-yl}pyridin-3-yl)piperidine-2,6-dione]
< 0.01 | > 70 | < 0.01 | > 70 | < 0.01 | > 70 | < 0.01 | 30 to 70 | – | – | – | – | – | – | – | – | O=C1CC[C@H](c2ccc(N3CCC(CN4CCN(c5ccc(-n6cc(-c7cc(Cl)cc(NS(=O)(=O)N8CCCC8)c7F)c(-c7ccncc7)n6)cc5)CC4)CC3)nc2)C(=O)N1 [Compound 285, N-{5-chloro-3-[1-(4-{4-[(1-{5-[(3R)-2,6-dioxopiperidin-3-yl]pyridin-2-yl}piperidin-4-yl)methyl]piperazin-1-yl}phenyl)-3-(pyridin-4-yl)-1H-pyrazol-4-yl]-2-fluorophenyl}pyrrolidine-1-sulfonamide]
< 0.01 | > 70 | < 0.01 | > 70 | < 0.01 | > 70 | < 0.01 | > 70 | – | – | – | – | – | – | – | – | O=C1CCC(c2ccc(N3CCC(CN4CCN(c5ccc(-n6cc(-c7cc(Cl)cc(NS(=O)(=O)N8CC[C@@H](F)C8)c7F)c(-c7ccncc7)n6)nc5)CC4)CC3)nc2)C(=O)N1 (mixture of isomers) [Compound 296, (3R)—N-{5-chloro-3-[1-(5-{4-[(1-{5-[(3RS)-2,6-dioxopiperidin-3-yl]pyridin-2-yl}piperidin-4-yl)methyl]piperazin-1-yl}pyridin-2-yl)-3-(pyridin-4-yl)-1H-pyrazol-4-yl]-2-fluorophenyl}-3-fluoropyrrolidine-1-sulfonamide]

The next lines start with the compound.

Compound | DC50 [1, 5] [µM] | Dmax [1, 6] [%] | DC50 [2, 7] [µM] | Dmax [2, 8] [%] | DC50 [3, 9] [µM] | Dmax [3, 10] [%] | DC50 [4, 11] [µM] | Dmax [4, 12] [%] | DC50 [1, 13] [µM] | Dmax [1, 14] [%] | DC50 [2, 15] [µM] | Dmax [2, 16] [%] | DC50 [3, 17] [µM] | Dmax [3, 18] [%] | DC50 [4, 19] [µM] | Dmax [4, 20] [%]
CCCS(=O)(=O)Nc1cccc(-c2nc(C3CCN(C(=O)C4CCN(CC5CCN(c6ccc(C7CCC(=O)NC7=O)cn6)CC5)CC4)CC3)sc2-c2ccncn2)c1F (racemic) [Compound 221, Rac-N-{3-[2-(1-{1-[(1-{5-[(3R)-2,6-dioxopiperidin-3-yl]pyridin-2-yl}piperidin-4-yl)methyl]piperidine-4-carbonyl}piperidin-4-yl)-5-(pyrimidin-4-yl)-1,3-thiazol-4-yl]-2-fluorophenyl}propane-1-sulfonamide] | – | – | – | – | – | – | – | – | 0.01 to 0.05 | > 70 | > 0.5 | 30 to 70 | > 0.5 | 30 to 70 | > 0.5 | 30 to 70
CCCS(=O)(=O)Nc1cccc(-c2nc(C(C)(C)C)sc2-c2ccnc(Nc3cccc(OC4CCN(C(=O)[C@H]5CC[C@H](Oc6ccc(C7CCC(=O)NC7=O)cn6)CC5)CC4)c3)n2)c1F (mixture of isomers) [Compound 97, N-{3-[2-tert-butyl-5-(2-{[3-({1-[(1r,4r)-4-({5-[(3RS)-2,6-dioxopiperidin-3-yl]pyridin-2-yl}oxy)cyclohexanecarbonyl]piperidin-4-yl}oxy)phenyl]amino}pyrimidin-4-yl)-1,3-thiazol-4-yl]-2-fluorophenyl}propane-1-sulfonamide] | – | – | – | – | – | – | – | – | 0.01 to 0.05 | > 70 | > 0.5 | 30 to 70 | > 0.5 | < 30 | > 0.5 | 30 to 70
CCCS(=O)(=O)Nc1cccc(-c2nc(C3CCN(C(=O)C4(C)CCN(C(=O)C5CCN(c6ccc(C7CCC(=O)NC7=O)cn6)CC5)CC4)CC3)sc2-c2ccnc(N)n2)c1F (racemic) [Compound 197, Rac-N-{3-[5-(2-aminopyrimidin-4-yl)-2-{1-[1-(1-{5-[(3R)-2,6-dioxopiperidin-3-yl]pyridin-2-yl}piperidine-4-carbonyl)-4-methylpiperidine-4-carbonyl]piperidin-4-yl}-1,3-thiazol-4-yl]-2-fluorophenyl}propane-1-sulfonamide] | – | – | – | – | – | – | – | – | < 0.01 | > 70 | < 0.01 | 30 to 70 | 0.01 to 0.05 | 30 to 70 | < 0.01 | 30 to 70
CCCS(=O)(=O)Nc1cccc(-c2cn(-c3ccc(N4CCN(CC5CCN(c6ccc(C7CCC(=O)NC7=O)c(F)c6)CC5)CC4)cc3)nc2-c2ccncc2)c1F (racemic) [Compound 19, Rac-N-{3-[1-(4-{4-[(1-{4-[(3R)-2,6-dioxopiperidin-3-yl]-3-fluorophenyl}piperidin-4-yl)methyl]piperazin-1-yl}phenyl)-3-(pyridin-4-yl)-1H-pyrazol-4-yl]-2-fluorophenyl}propane-1-sulfonamide] | – | – | – | – | – | – | – | – | 0.01 to 0.05 | > 70 | 0.01 to 0.05 | 30 to 70 | > 0.5 | 30 to 70 | 0.01 to 0.05 | 30 to 70
CCCS(=O)(=O)Nc1cccc(-c2nc(C3CCC4(CC3)CCN(CC[C@H]3CCN(c5ccc(C6CCC(=O)NC6=O)cn5)C3)CC4)sc2-c2ccnc(N)n2)c1F (mixture of isomers) [Compound 259, N-{3-[5-(2-aminopyrimidin-4-yl)-2-(3-{2-[(3S)-1-{5-[(3RS)-2,6-dioxopiperidin-3-yl]pyridin-2-yl}pyrrolidin-3-yl]ethyl}-3-azaspiro[5.5]undecan-9-yl)-1,3-thiazol-4-yl]-2-fluorophenyl}propane-1-sulfonamide] | 0.01 to 0.05 | 30 to 70 | > 0.5 | < 30 | > 0.5 | < 30 | > 0.5 | < 30 | – | – | – | – | – | – | – | –
